Tests used:
Type in all cases: physicochemical
[1] = Dissolution time in water by Modified United States Pharmacopeia Method 641
Protocol: As used herein, the term “Modified United States Pharmacopeia Method 641” denotes a modified form of the Standard United States Pharmacopeia Method 641, where the Modified United States Pharmacopeia Method 641 is carried out as follows: • Place 1.8 g of the particulate iohexol in a meticulously clean, glass-stoppered, 50 mL glass cylinder approximately 1:10 diameter to height in size. • Fill 40 mL of tap water adjusted to 10° C. (±2° C.) into the glass cylinder. • Immediately start shaking the glass cylinder and start recording total time. • Shake the glass cylinder with an up and down movement, keeping the frequency at 12-13 movements per 5 seconds. • After 20 seconds observe for 3 seconds for completeness of dissolution. • Evaluate after 3 seconds, when the bubbles disappear, comparing with pure solvent. • If dissolved completely, record “dissolved in 20 seconds”. • If not dissolved completely, continue shaking for a total time 30 sec • Repeat the dissolution evaluation at 30 seconds, 40 seconds, 1 min., and 1 min. 30 seconds. • Always repeat the dissolution evaluation using the same procedure. • If dissolved completely at time point 1 min 30 sec, record “dissolved in NMT 1 min 30 sec”. • If not dissolved, record “not dissolved in 1 min 30 sec”. 20 oz (600 ml) modified beverage PET bottle for Iohexol Powder for Oral Solution product; 50 ml testing glass cylinder; Tap water. Samples were tested using the Modified USP Method <641> as described herein.

[2] = Particle size distribution (D10, D50, D90); conditions: for Particle Size distribution (μm) D50: Table 6, Example 5; for Particle Size distribution (μm) D10 / Particle Size distribution (μm) D90: Table 6
Source text: As used herein, the “D90” of a particulate material denotes a diameter value for the particles in the material at which about 90% of the particles have a diameter below the diameter value. For example, in a sample with a D90 of 20 μm, 90% of the particles in the sample have a diameter of 20 μm or less. As used herein, the “D50” of a material denotes a diameter value for the particles in the material at which about 50% of the particles have a diameter below the diameter value. For example, in a sample with a D50 of 10 μm, 50% of the particles in the sample have a diameter of 10 μm or less. As used herein, the “D10” of a material denotes a diameter value for the particles in the material at which about 10% of the particles have a diameter below the diameter value. For example, in a sample with a D10 of 5 μm, 10% of the particles in the sample have a diameter of 5 μm or less.

[3] = Specific surface area by low-temperature nitrogen adsorption (BET); conditions: for Specific surface area m^2/g: Table 6, Example 5; for Specific Area measured [m^2/g]: BET isotherm, nitrogen adsorption
Protocol: Specific surface area was measured using a low-temperature nitrogen adsorption apparatus, a Pulse Chemisorb 2700.
The specific surface area data, which were evaluated using a BET isotherm, support the nonporous nature/character of the particles. The measured value of the specific surface area was about 2.8 m^2/g, which is consistent with the calculation of the specific surface area of hypothetical material which consists of non-porous spheres with a radius of 3 μm. Considering the skeletal density of crystallized iohexol (2.097 g/cm3), the calculated specific surface area of this hypothetical material is about 4 m^2/g. All data provided by analyses appear to support the conclusion that the crystallized iohexol solid material contains agglomerates consisting of small nonporous particles and that the total specific area is the sum of the outer surface areas of these particles.
Experimentally obtained values of the specific surface area are very low, which is typical of macroporous to non-porous materials. Experimental specific surface area values for all samples are in good agreement with the estimated values based on SEM image analysis, (calculating the particle surface area based on the geometrical shape of particles, i.e., and assuming that the particles are not porous (confirmed by mercury porosimetry as discussed above). Individual values and comparisons of the amount of nitrogen desorption for each sample are summarized in Table 5.

[4] = Bulk density; conditions: Table 6
Source text: As used herein, the term “bulk density” of a material denotes total mass of the material divided by the total volume occupied by the material. As used herein, the term “interparticle spacing” denotes the percentage of the “bulk” particle volume which is free space. The interparticle spacing can be calculated from the bulk density and skeletal density. As discussed above, bulk density refers to the density determined by dividing the weight of the sample by its measured volume, for example using the USP <616> method. The skeletal density, sometimes referred to as the “true density,” is determined by dividing the weight of a sample by its “true” volume—i.e., the volume excluding interstitial voids and any open porosity in the sample (e.g., determined by gas displacement techniques). Interparticle spacing can be calculated from the bulk density and skeletal density as exemplified herein: if the bulk density of a particular iohexol sample is ˜0.9 g/cm^3, the corresponding “bulk” volume for 1 g of the sample is 1.11 cm^3; and if the skeletal density of the sample is ˜2 g/cm^3, the corresponding “skeletal” volume (i.e. volume with porosity excluded) for 1 g of this sample is 0.5 cm^3. The difference between the “bulk” volume and “skeletal” volume, 0.61 cm^3, represents the volume of the free space (porosity) in the particle. The interparticle spacing is the difference between the “skeletal” volume and bulk volume, divided by the “bulk” volume, expressed as a percentage (i.e. 0.61 cm^3/1.11 cm^3=55% in this example).

[5] = Interparticle spacing calculated from bulk and skeletal density
Protocol: As used herein, the term “interparticle spacing” denotes the percentage of the “bulk” particle volume which is free space. The interparticle spacing can be calculated from the bulk density and skeletal density. As discussed above, bulk density refers to the density determined by dividing the weight of the sample by its measured volume, for example using the USP <616> method. The skeletal density, sometimes referred to as the “true density,” is determined by dividing the weight of a sample by its “true” volume—i.e., the volume excluding interstitial voids and any open porosity in the sample (e.g., determined by gas displacement techniques).

[6] = Skeletal density by helium pycnometer; conditions: for Skeletal density (g/cm3): Table 6; for Skeletal density: Table 5, Example 3
Protocol: As used herein, the term “interparticle spacing” denotes the percentage of the “bulk” particle volume which is free space. The interparticle spacing can be calculated from the bulk density and skeletal density. As discussed above, bulk density refers to the density determined by dividing the weight of the sample by its measured volume, for example using the USP <616> method. The skeletal density, sometimes referred to as the “true density,” is determined by dividing the weight of a sample by its “true” volume—i.e., the volume excluding interstitial voids and any open porosity in the sample (e.g., determined by gas displacement techniques). […] The porosity of the iohexol particles was also investigated using mercury intrusion, and the skeletal density was determined by helium pycnometer and physical adsorption of nitrogen.

## CC(=O)N(CC(O)CO)c1c(I)c(C(=O)NCC(O)CO)c(I)c(C(=O)NCC(O)CO)c1I (stereo not drawn) [Batch 01206013, iohexol]
[1]; Table 4, 1.8 g in 40 mL tap water at 10° C., manual shaking, listed as 01206013
  Dissolution time: 40 s
[1]; Table 6, Example 5, listed as 01206013
  Dissolution time: 40 s
[2]; listed as 01206013
  Particle Size distribution (μm) D50: 10 μm
  Particle Size distribution (μm) D10: 5 μm
  Particle Size distribution (μm) D90: 15 μm
[3]; listed as 01206013
  Specific surface area m^2/g: 4.00 m^2/g
[4]; listed as 01206013
  Bulk density (g/cm3): 0.56 g/cm3
[5]; Table 6, listed as 01206013
  Interparticle space (% of bulk volume): 73 % of bulk volume

## CC(=O)N(CC(O)CO)c1c(I)c(C(=O)NCC(O)CO)c(I)c(C(=O)NCC(O)CO)c1I (stereo not drawn) [Batch 03202012/1, iohexol]
[1]; Table 4, 1.8 g in 40 mL tap water at 10° C., manual shaking, listed as 03202012/1
  Dissolution time: 60 s
[1]; Table 6, Example 5, listed as 03202012/1
  Dissolution time: 60 s
[2]; listed as 03202012/1
  Particle Size distribution (μm) D50: 14 μm
  Particle Size distribution (μm) D10: 9 μm
  Particle Size distribution (μm) D90: 22 μm
[3]; listed as 03202012/1
  Specific surface area m^2/g: 0.50 m^2/g
[6]
  Skeletal density (g/cm3): 2.0 g/cm3
[4]; listed as 03202012/1
  Bulk density (g/cm3): 0.90 g/cm3
[5]; Table 6, listed as 03202012/1
  Interparticle space (% of bulk volume): 56 % of bulk volume

## CC(=O)N(CC(O)CO)c1c(I)c(C(=O)NCC(O)CO)c(I)c(C(=O)NCC(O)CO)c1I (stereo not drawn) [Batch 03202012/8, iohexol]
[1]; Table 4, 1.8 g in 40 mL tap water at 10° C., manual shaking, listed as 03202012/8
  Dissolution time: 40 s
[1]; Table 6, Example 5, listed as 03202012/8
  Dissolution time: 40 s
[2]; listed as 03202012/8
  Particle Size distribution (μm) D50: 12 μm
  Particle Size distribution (μm) D10: 7 μm
  Particle Size distribution (μm) D90: 19 μm
[3]; listed as 03202012/8
  Specific surface area m^2/g: 0.50 m^2/g
[6]
  Skeletal density (g/cm3): 2.0 g/cm3
[4]; listed as 03202012/8
  Bulk density (g/cm3): 0.90 g/cm3
[5]; Table 6, listed as 03202012/8
  Interparticle space (% of bulk volume): 56 % of bulk volume

## CC(=O)N(CC(O)CO)c1c(I)c(C(=O)NCC(O)CO)c(I)c(C(=O)NCC(O)CO)c1I (stereo not drawn) [Batch 03202012/9, iohexol]
[1]; Table 4, 1.8 g in 40 mL tap water at 10° C., manual shaking, listed as 03202012/9
  Dissolution time: 60 s
[1]; Table 6, Example 5, listed as 03202012/9
  Dissolution time: 60 s
[2]; listed as 03202012/9
  Particle Size distribution (μm) D50: 20 μm
  Particle Size distribution (μm) D10: 11 μm
  Particle Size distribution (μm) D90: 35 μm
[3]; listed as 03202012/9
  Specific surface area m^2/g: 0.50 m^2/g
[6]
  Skeletal density (g/cm3): 2.0 g/cm3
[4]; listed as 03202012/9
  Bulk density (g/cm3): 0.90 g/cm3
[5]; Table 6, listed as 03202012/9
  Interparticle space (% of bulk volume): 56 % of bulk volume

## CC(=O)N(CC(O)CO)c1c(I)c(C(=O)NCC(O)CO)c(I)c(C(=O)NCC(O)CO)c1I (stereo not drawn) [Batch 03302012, iohexol]
[1]; Table 4, 1.8 g in 40 mL tap water at 10° C., manual shaking, listed as 03302012
  Dissolution time: 40 s
[1]; Table 6, Example 5, listed as 03302012
  Dissolution time: 40 s
[2]; listed as 03302012
  Particle Size distribution (μm) D50: 10 μm
  Particle Size distribution (μm) D10: 5 μm
  Particle Size distribution (μm) D90: 16 μm
[3]; listed as 03302012
  Specific surface area m^2/g: 4.00 m^2/g
[4]; listed as 03302012
  Bulk density (g/cm3): 0.56 g/cm3
[5]; Table 6, listed as 03302012
  Interparticle space (% of bulk volume): 73 % of bulk volume

## CC(=O)N(CC(O)CO)c1c(I)c(C(=O)NCC(O)CO)c(I)c(C(=O)NCC(O)CO)c1I (stereo not drawn) [Conventional Sample #1, iohexol]
[1]; Table 6, Example 5
  Dissolution time: 90 s
[2]
  Particle Size distribution (μm) D10: 7 μm
  Particle Size distribution (μm) D90: 61 μm
  Particle Size distribution (μm) D50: 27 μm
[3]
  Specific surface area m^2/g: 0.50 m^2/g
[6]
  Skeletal density (g/cm3): 2.0 g/cm3
[4]
  Bulk density (g/cm3): 0.90 g/cm3
[5]; Table 6
  Interparticle space (% of bulk volume): 56 % of bulk volume

## CC(=O)N(CC(O)CO)c1c(I)c(C(=O)NCC(O)CO)c(I)c(C(=O)NCC(O)CO)c1I (stereo not drawn) [Conventional Sample #2, iohexol]
[1]; Table 6, Example 5
  Dissolution time: 90 s
[2]
  Particle Size distribution (μm) D10: 7 μm
  Particle Size distribution (μm) D90: 66 μm
  Particle Size distribution (μm) D50: 29 μm
[3]
  Specific surface area m^2/g: 0.50 m^2/g
[6]
  Skeletal density (g/cm3): 2.0 g/cm3
[4]
  Bulk density (g/cm3): 0.90 g/cm3
[5]; Table 6
  Interparticle space (% of bulk volume): 56 % of bulk volume

## CC(=O)N(CC(O)CO)c1c(I)c(C(=O)NCC(O)CO)c(I)c(C(=O)NCC(O)CO)c1I (stereo not drawn) [SDI, iohexol]
[3]; Table 5
  Specific Area measured [m^2/g]: <1 m^2/g
[3]; Table 5, listed as spray dried iohexol
  Specific Area measured [m^2/g]: less than 1 m^2/g
[3]; Table 5, calculated from SEM geometry assuming non-porous spheres
  Specific Area estimated [m^2/g]: 0.5^b m^2/g
[3]; Table 5, nitrogen desorbed relative to crystallized iohexol
  Relative desorbed amount Ad/Ad(crystallized): 0.08
[3]; listed as spray dried iohexol
  Specific surface area m^2/g: about 0.5 m^2/g
[6]
  Skeletal density: 2.029 g/mL
[6]; listed as spray dried iohexol
  Skeletal density: 2.029 g/mL
